Assay results from patent US6855710B2, “Substituted indolines with an inhibitory effect on various kinases and complexes of CDKs” (Boehringer Ingelheim Pharma KG, priority 1998, dated 2005).

| Compound | melting point |
| --- | --- |
| CCN(CC)CC(=O)N(C)c1ccc(N/C(=C2\C(=O)Nc3ccccc32)c2ccccc2)cc1 [Example 49, (Z)-3-{1-[4-(N-Diethylaminomethylcarbonyl-N-methyl-amino)-phenylamino]-1-phenyl-methylidene}-2-indolinone] | 242 to 247 °C |
| CCNCCc1ccc(N/C(=C2\C(=O)Nc3ccc([N+](=O)[O-])cc32)c2ccccc2)cc1 [Example 255, (Z)-3-{1-[4-(2-ethylamino-ethyl)-phenylamino]-1-phenyl-methylidene}-5-nitro-2-indolinone] | 235 to 237 °C |
| CN(C)CC(=O)NCc1cccc(N/C(=C2\C(=O)Nc3ccc([N+](=O)[O-])cc32)c2ccccc2)c1 [Example 106, (Z)-3-[1-(3-dimethylaminomethylcarbonylaminomethyl-phenylamino)-1-phenyl-methylidene]-5-nitro-2-indolinone] | 171 to 173 °C |
| CS(=O)(=O)NCc1ccc(N/C(=C2\C(=O)Nc3ccc([N+](=O)[O-])cc32)c2ccccc2)cc1 [Example 167, (Z)-3-[1-(4-methylsulphonylaminomethyl-phenylamino)-1-phenyl-methylidene]-5-nitro-2-indolinone] | 294 to 296 °C |
| NCc1ccc(/C(Nc2ccccc2)=C2/C(=O)Nc3ccc([N+](=O)[O-])cc32)cc1 [Example 154, (Z)-3-[1-phenylamino-1-(4-aminomethyl-phenyl)-methylidene]-5-nitro-2-indolinone] | 332 °C (dec.) |
| O=C1Nc2ccc([N+](=O)[O-])cc2/C1=C(/Nc1ccc(CN2CCSCC2)cc1)c1ccccc1 [Example 229, (Z)-3-[1-(4-thiomorpholinomethyl-phenylamino)-1-phenyl-methylidene]-5-nitro-2-indolinone] | 276 to 277 °C |
| O=C1Nc2ccccc2/C1=C(/Nc1ccc(C(=O)O)cc1)c1ccccc1 [Example 17, (Z)-3-[1-(4-carboxy-phenylamino)-1-phenyl-methylidene]-2-indolinone] | 312 to 316 °C |

The remaining lines, values ahead:

| melting point | Compound |
| --- | --- |
| 208 to 213 °C | CCOC(=O)C1CCN(CCc2ccc(N/C(=C3\C(=O)Nc4ccc([N+](=O)[O-])cc43)c3ccccc3)cc2)CC1 [Example 262, (Z)-3-{1-[4-(2-(4-ethoxycarbonyl-piperidino)-ethyl)-phenylamino]-1-phenyl-methylidene}-5-nitro-2-indolinone] |
| 284 to 287 °C | CN(C)C(=O)CN(C(=O)c1ccccc1)c1ccc(N/C(=C2\C(=O)Nc3ccccc32)c2ccccc2)cc1 [Example 363, (Z)-3-{1-[4-(N-dimethylaminocarbonylmethyl-N-benzoyl-amino)-phenylamino]-1-phenyl-methylidene}-2-indolinone] |
| 227 °C | CC(=O)N(CCCN(C)C)c1ccc(N/C(=C2\C(=O)Nc3ccccc32)c2ccccc2)cc1 [Example 344, (Z)-3-{1-[4-(N-(3-dimethylaminopropyl)-N-acetyl-amino)-phenylamino]-1-phenyl-methylidene}-2-indolinone] |
| 197 °C | CN(C)CCCN(c1cccc(N/C(=C2\C(=O)Nc3ccccc32)c2ccc(CN)cc2)c1)S(C)(=O)=O [Example 424, (Z)-3-{1-[3-(N-(3-dimethylaminopropyl)-N-methylsulphonyl-amino)-phenylamino]-1-(4-aminomethyl-phenyl)-methylidene}-2-indolinone] |
| 187 to 189 °C | CC(=O)NCCC(=O)N(C)c1ccc(N/C(=C2\C(=O)Nc3ccccc32)c2ccccc2)cc1 [Example 378, (Z)-3-{1-[4-(N-(2-acetylamino-ethylcarbonyl)-N-methyl-amino)-phenylamino]-1-phenyl-methylidene}-2-indolinone] |
| 188 to 190 °C | CN(C)CC(=O)N(C)c1ccc(N/C(=C2\C(=O)Nc3ccccc32)c2ccc(CN)cc2)cc1 [Example 430, (Z)-3-{1-[4-(N-dimethylaminomethylcarbonyl-N-methyl-amino)-phenylamino]-1-(4-aminomethyl-phenyl)-methylidene}-2-indolinone] |
